Source: PubChem BioAssay AID2060891 (Molecular Pharmacology Branch, DTP, NCI, 2025)
“And” between values parts separate entries of the source, which are not always exact repeats. Identical values can stand only once.

System: K98450-129-R-PDC complex spheroid growth, percent test/control
Assay: Anticancer human tumor K98450-129-R-PDC patient-derived colon adenocarcinoma cell line growth inhibition [RAS]
Settings: for viability, T/C: stronger effect = lower value; active = viability on the fitted dose curve at most 10% of control; inactive = the rest
Procedure, shortened: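 Tumour cells grown as complex spheroids with HUVEC endothelial cells and mesenchymal stem cells, treated with RAS pathway inhibitor combinations. Each agent spans half-log steps from near clinical Cmax, or 10 microM where Cmax is unknown.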

[1] = curve of first compound, second compound 0.0316 µM
[2] = curve of first compound, second compound 0.1 µM
[3] = curve of first compound, second compound 0.316 µM
[4] = curve of first compound, second compound 1 µM
[5] = curve of first compound, second compound 3.16 µM
[6] = curve of first compound, second compound 10 µM
[7] = second compound 0.0316 µM, first compound 0.0316 µM
[8] = second compound 0.0316 µM, first compound 0.1 µM
[9] = second compound 0.0316 µM, first compound 0.316 µM
[10] = second compound 0.0316 µM, first compound 1 µM
[11] = second compound 0.1 µM, first compound 0.0316 µM
[12] = second compound 0.1 µM, first compound 0.1 µM
[13] = second compound 0.1 µM, first compound 0.316 µM
[14] = second compound 0.1 µM, first compound 1 µM
[15] = second compound 0.316 µM, first compound 0.0316 µM
[16] = second compound 0.316 µM, first compound 0.1 µM
[17] = second compound 0.316 µM, first compound 0.316 µM
[18] = second compound 0.316 µM, first compound 1 µM
[19] = second compound 1 µM, first compound 0.0316 µM
[20] = second compound 1 µM, first compound 0.1 µM
[21] = second compound 1 µM, first compound 0.316 µM
[22] = second compound 1 µM, first compound 1 µM
[23] = second compound 3.16 µM, first compound 0.0316 µM
[24] = second compound 3.16 µM, first compound 0.1 µM
[25] = second compound 3.16 µM, first compound 0.316 µM
[26] = second compound 3.16 µM, first compound 1 µM
[27] = second compound 10 µM, first compound 0.0316 µM
[28] = second compound 10 µM, first compound 0.1 µM
[29] = second compound 10 µM, first compound 0.316 µM
[30] = second compound 10 µM, first compound 1 µM
[31] = second compound 0.0316 µM, first compound 3.16 µM
[32] = second compound 0.0316 µM, first compound 10 µM
[33] = second compound 0.1 µM, first compound 3.16 µM
[34] = second compound 0.1 µM, first compound 10 µM
[35] = second compound 0.316 µM, first compound 3.16 µM
[36] = second compound 0.316 µM, first compound 10 µM
[37] = second compound 1 µM, first compound 3.16 µM
[38] = second compound 1 µM, first compound 10 µM
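Note: spheroids exposed to agents for seven days before the viability readout.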
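Throughout, for viability, T/C: luminescence used as a proxy for viable cell amount.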

C=CC(=O)N1CCN(c2nc(OCC3CCCN3C)nc3c(F)c(-c4nc(N)cc(C)c4C(F)(F)F)c(Cl)cc23)C(C)C1 (stereo not drawn) + C#Cc1c(F)ccc2cc(O)cc(-c3ncc4c(N5CC6CCC(C5)N6)nc(OCC56CCCN5CC(F)C6)nc4c3F)c12
111 nM: IC50 [5]
93.2 nM: IC50 [4]
137 nM: IC50 [3]
164 nM: IC50 [1]
143 nM: IC50 [2]
134 nM: IC50 [6]
inactive: viability, T/C (second compound 0.0316 µM, first compound 0.00316 µM) 94.9% | viability, T/C (second compound 0.0316 µM, first compound 0.01 µM) 81.4% | viability, T/C [7] 68.7% | viability, T/C [8] 55% | viability, T/C [9] 43.6% | viability, T/C [10] 30.8% | viability, T/C (second compound 0.1 µM, first compound 0.00316 µM) 95.4% | viability, T/C (second compound 0.1 µM, first compound 0.01 µM) 81.3% | viability, T/C [11] 68.7% | viability, T/C [12] 54.3% | viability, T/C [13] 40.5% | viability, T/C [14] 31.4% | viability, T/C (second compound 0.316 µM, first compound 0.00316 µM) 97.7% | viability, T/C (second compound 0.316 µM, first compound 0.01 µM) 86.4% | viability, T/C [15] 70.9% | viability, T/C [16] 58.8% | viability, T/C [17] 33.9% | viability, T/C [18] 32.6% | viability, T/C (second compound 1 µM, first compound 0.00316 µM) 93.4% | viability, T/C (second compound 1 µM, first compound 0.01 µM) 88.7% | viability, T/C [19] 67% | viability, T/C [20] 50.2% | viability, T/C [21] 37.2% | viability, T/C [22] 33.7% | viability, T/C (second compound 3.16 µM, first compound 0.00316 µM) 94.3% | viability, T/C (second compound 3.16 µM, first compound 0.01 µM) 80.4% | viability, T/C [23] 69.7% | viability, T/C [24] 52% | viability, T/C [25] 34.7% | viability, T/C [26] 26.1% | viability, T/C (second compound 10 µM, first compound 0.00316 µM) 82.9% | viability, T/C (second compound 10 µM, first compound 0.01 µM) 78.4% | viability, T/C [27] 68.8% | viability, T/C [28] 53.1% | viability, T/C [29] 38.9% | viability, T/C [30] 24.6%

CC1(O)CCCC1n1c(=O)c(C(F)F)cc2cnc(NC3CCN(S(C)(=O)=O)CC3)nc21 (stereo not drawn) + C#Cc1c(F)ccc2cc(O)cc(-c3ncc4c(N5CC6CCC(C5)N6)nc(OCC56CCCN5CC(F)C6)nc4c3F)c12
inactive: viability, T/C [7] 105% | viability, T/C [8] 101% | viability, T/C [9] 91.3% | viability, T/C [10] 78.3% | viability, T/C [31] 64.2% | viability, T/C [32] 59.3% | viability, T/C [11] 108% | viability, T/C [12] 101% | viability, T/C [13] 91.7% | viability, T/C [14] 77.8% | viability, T/C [33] 65.8% | viability, T/C [34] 60.5% | viability, T/C [15] 106% | viability, T/C [16] 99.5% | viability, T/C [17] 92.4% | viability, T/C [18] 78.8% | viability, T/C [35] 65.5% | viability, T/C [36] 60.5% | viability, T/C [19] 104% | viability, T/C [20] 103% | viability, T/C [21] 89.3% | viability, T/C [22] 68.8% | viability, T/C [37] 58.8% | viability, T/C [38] 55.3% | viability, T/C [23] 90.9% | viability, T/C [24] 94.2% | viability, T/C [25] 83.5% | viability, T/C [26] 73.7% | viability, T/C (second compound 3.16 µM, first compound 3.16 µM) 63.8% | viability, T/C (second compound 3.16 µM, first compound 10 µM) 57.3% | viability, T/C [27] 89.8% | viability, T/C [28] 85.6% | viability, T/C [29] 80% | viability, T/C [30] 67.4% | viability, T/C (second compound 10 µM, first compound 3.16 µM) 57.4% | viability, T/C (second compound 10 µM, first compound 10 µM) 51%
> 10000 nM: IC50 [1] | IC50 [2] | IC50 [3] | IC50 [4] | IC50 [5] | IC50 [6]

CCc1c2c(nc3ccc(O)cc13)-c1cc3c(c(=O)n1C2)COC(=O)[C@]3(O)CC
48.9 nM and > 300 nM and 43.1 nM: IC50 (curve of compound)
inactive: viability, T/C (compound 0.000949 µM) 104% [middle of 4 runs] | viability, T/C (compound 0.003 µM) 97.8% [middle of 4 runs] | viability, T/C (compound 0.00949 µM) 92.5% [middle of 4 runs] | viability, T/C (compound 0.03 µM) 69% [middle of 4 runs] | viability, T/C (compound 0.3 µM) 49.5% [middle of 4 runs]

CCn1c(-c2cccnc2C(C)OC)c2c3cc(ccc31)N1CCOC(CC(NC(=O)C(C(C)C)N(C)C(=O)C3(F)CCN(C(=O)C#CC(C)(C)N(C)C)CC3)C(=O)N3CCCC(N3)C(=O)OCC(C)(C)C2)C1 (stereo not drawn)
inactive: viability, T/C (compound 0.000949 µM) 78.5% [middle of 8 runs] | viability, T/C (compound 0.003 µM) 63.4% [middle of 8 runs] | viability, T/C (compound 0.00949 µM) 47.8% [middle of 8 runs] | viability, T/C (compound 0.03 µM) 43.1% [middle of 8 runs] | viability, T/C (compound 0.0949 µM) 41.6% [middle of 8 runs] | viability, T/C (compound 0.3 µM) 35.3% [middle of 8 runs]

NC1c2ccccc2OC12CCN(c1cnc3c(N4CCCc5ncccc54)n[nH]c3n1)CC2 (stereo not drawn) + C=CC(=O)N1CCN(c2nc(OCC3CCCN3C)nc3c(F)c(-c4nc(N)cc(C)c4C(F)(F)F)c(Cl)cc23)C(C)C1
58.6 nM: IC50 (curve of first compound, second compound 0.00316 µM)
inactive: viability, T/C (second compound 0.00316 µM, first compound 0.0316 µM) 71.8% | viability, T/C (second compound 0.00316 µM, first compound 0.1 µM) 31.1% | viability, T/C (second compound 0.01 µM, first compound 0.0316 µM) 48.1% | viability, T/C (second compound 0.01 µM, first compound 0.1 µM) 13% | viability, T/C [7] 16.9% | viability, T/C [8] 10.2% | viability, T/C [11] 12.3% | viability, T/C [15] 10.9% | viability, T/C [19] 10.8%
active: viability, T/C (second compound 0.00316 µM, first compound 0.316 µM) 8.4% | viability, T/C (second compound 0.00316 µM, first compound 1 µM) 7.7% | viability, T/C (second compound 0.00316 µM, first compound 3.16 µM) 6.2% | viability, T/C (second compound 0.00316 µM, first compound 10 µM) 4.82% | viability, T/C (second compound 0.01 µM, first compound 0.316 µM) 7.99% | viability, T/C (second compound 0.01 µM, first compound 1 µM) 7.31% | viability, T/C (second compound 0.01 µM, first compound 3.16 µM) 6.81% | viability, T/C (second compound 0.01 µM, first compound 10 µM) 4.84% | viability, T/C [9] 8.19% | viability, T/C [10] 7.23% | viability, T/C [31] 5.99% | viability, T/C [32] 4.9% | viability, T/C [12] 8.86% | viability, T/C [13] 8.05% | viability, T/C [14] 6.93% | viability, T/C [33] 6.33% | viability, T/C [34] 4.82% | viability, T/C [16] 8.75% | viability, T/C [17] 8.02% | viability, T/C [18] 6.49% | viability, T/C [35] 6.35% | viability, T/C [36] 5.02% | viability, T/C [20] 9.4% | viability, T/C [21] 8.01% | viability, T/C [22] 6.8% | viability, T/C [37] 6.75% | viability, T/C [38] 5.01%
< 31.6 nM: IC50 (curve of first compound, second compound 0.01 µM) | IC50 [1] | IC50 [2] | IC50 [3] | IC50 [4]
